Molecular target: T1, LRRK2(G2019S mutation, GST-LRRK2(amino acids 970-2527)) (Homo sapiens, UniProt Q5S007, G2019S)
T1 construct: GST-LRRK2(amino acids 970-2527); GST (N); purchased Life Technologies Corporation
Test: LRRK2 Km ATP LanthaScreen Assay
Format: biochemical
Details: Km ATP LanthaScreen; mean IC50 of several tests; read-out: LRRK2 IC50
In short: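 IC50 values are means of several runs in the Km-ATP LanthaScreen format, analysed by curve fitting of the LanthaScreen read-out.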

T1 sequence (Q5S007 970-2527 G2019S): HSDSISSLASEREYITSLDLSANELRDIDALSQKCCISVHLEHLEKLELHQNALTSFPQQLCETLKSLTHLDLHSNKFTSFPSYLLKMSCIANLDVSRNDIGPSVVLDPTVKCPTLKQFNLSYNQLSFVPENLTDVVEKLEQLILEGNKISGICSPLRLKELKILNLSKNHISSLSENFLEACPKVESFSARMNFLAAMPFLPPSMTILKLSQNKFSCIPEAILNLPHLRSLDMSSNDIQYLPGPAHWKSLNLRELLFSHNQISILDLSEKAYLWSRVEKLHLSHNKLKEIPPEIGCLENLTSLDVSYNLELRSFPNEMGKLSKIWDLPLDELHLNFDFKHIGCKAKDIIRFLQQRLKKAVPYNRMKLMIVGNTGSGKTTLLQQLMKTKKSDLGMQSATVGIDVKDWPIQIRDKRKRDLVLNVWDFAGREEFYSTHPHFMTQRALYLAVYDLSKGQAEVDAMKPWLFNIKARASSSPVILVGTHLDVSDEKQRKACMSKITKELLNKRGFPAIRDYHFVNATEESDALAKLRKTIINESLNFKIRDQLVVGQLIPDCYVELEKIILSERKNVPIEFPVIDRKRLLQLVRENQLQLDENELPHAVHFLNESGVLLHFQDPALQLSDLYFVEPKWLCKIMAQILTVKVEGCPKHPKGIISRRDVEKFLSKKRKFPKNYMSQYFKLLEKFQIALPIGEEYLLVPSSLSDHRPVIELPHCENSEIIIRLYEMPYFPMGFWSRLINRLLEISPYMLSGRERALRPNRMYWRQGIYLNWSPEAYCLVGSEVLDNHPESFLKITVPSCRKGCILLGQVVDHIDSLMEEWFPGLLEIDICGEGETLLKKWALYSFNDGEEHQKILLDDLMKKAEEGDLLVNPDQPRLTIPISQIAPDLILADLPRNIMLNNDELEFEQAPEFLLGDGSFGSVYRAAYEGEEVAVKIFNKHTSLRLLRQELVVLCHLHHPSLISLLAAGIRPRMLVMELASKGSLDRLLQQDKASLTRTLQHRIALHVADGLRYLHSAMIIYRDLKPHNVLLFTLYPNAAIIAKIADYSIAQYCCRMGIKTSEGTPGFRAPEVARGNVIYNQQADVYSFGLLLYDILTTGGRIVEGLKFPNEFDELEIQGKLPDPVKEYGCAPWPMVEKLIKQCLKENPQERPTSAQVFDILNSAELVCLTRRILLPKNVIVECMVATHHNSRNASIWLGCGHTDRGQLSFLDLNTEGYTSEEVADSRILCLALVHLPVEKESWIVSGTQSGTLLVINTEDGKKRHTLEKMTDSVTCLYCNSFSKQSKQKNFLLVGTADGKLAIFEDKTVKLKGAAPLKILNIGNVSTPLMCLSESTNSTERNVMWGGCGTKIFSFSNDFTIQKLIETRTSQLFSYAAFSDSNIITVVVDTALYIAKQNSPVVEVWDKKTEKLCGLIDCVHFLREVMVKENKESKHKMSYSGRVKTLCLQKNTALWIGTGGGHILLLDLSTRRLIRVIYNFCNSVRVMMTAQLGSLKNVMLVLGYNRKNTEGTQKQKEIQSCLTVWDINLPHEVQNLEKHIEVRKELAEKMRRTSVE

Oc1ccc(-c2ccc3[nH]nc(-c4ccnc(N5CCOCC5)c4)c3c2)cn1 [Example 315]
IC50: 39 nM

Cc1ncc(-c2ccc3[nH]nc(-c4ccnc(N5CCOCC5)c4)c3c2)n1C [Example 317]
IC50: 1.4 nM

Cc1nn(C)cc1-c1ccc2[nH]nc(-c3ccnc(N4CCOCC4)c3)c2c1 [Example 318]
IC50: 17 nM

c1cc(-c2ccc3[nH]nc(-c4ccnc(N5CCOCC5)c4)c3c2)cnn1 [Example 319]
IC50: 8.2 nM

COc1ccnc(Cl)c1-c1ccc2[nH]nc(-c3ccnc(N4CCOCC4)c3)c2c1 [Example 320]
IC50: < 0.6 nM

c1cc(-c2n[nH]c3ccc(-c4cnco4)cc23)cc(N2CCOCC2)n1 [Example 322]
IC50: 0.66 nM

COc1ccncc1-c1cc2c(-c3ccnc(N4CCOCC4)c3)n[nH]c2cc1F [Example 323]
IC50: < 0.6 nM

c1cnc(-c2ccc3[nH]nc(-c4ccnc(N5CCOCC5)c4)c3c2)cn1 [Example 324]
IC50: 1.1 nM

c1cc(-c2n[nH]c3ccc(-c4ncco4)cc23)cc(N2CCOCC2)n1 [Example 325]
IC50: 6.9 nM

c1cnnc(-c2ccc3[nH]nc(-c4ccnc(N5CCOCC5)c4)c3c2)c1 [Example 326]
IC50: 6.4 nM

c1cc(-c2n[nH]c3ccc(-c4cncs4)cc23)cc(N2CCOCC2)n1 [Example 327]
IC50: < 0.6 nM

COc1ccc(-c2ccc3[nH]nc(-c4ccnc(N5CCOCC5)c4)c3c2)c(OC)n1 [Example 328]
IC50: 189 nM

CCc1cnc(-c2ccc3[nH]nc(-c4ccnc(N5CCOCC5)c4)c3c2)nc1 [Example 330]
IC50: 5.6 nM

CC(C)(O)Cc1ccc2[nH]nc(-c3ccnc(N4CCOCC4)c3)c2c1 [Example 332]
IC50: 93 nM

OCCc1ccc2[nH]nc(-c3ccnc(N4CCOCC4)c3)c2c1 [Example 333]
IC50: 30 nM

Clc1cnc(-c2ccc3[nH]nc(-c4ccnc(N5CCOCC5)c4)c3c2)nc1 [Example 334]
IC50: 52 nM

CCCc1cnc(-c2ccc3[nH]nc(-c4ccnc(N5CCOCC5)c4)c3c2)nc1 [Example 335]
IC50: 5.4 nM

Cc1ccnc(-c2ccc3[nH]nc(-c4ccnc(N5CCOCC5)c4)c3c2)n1 [Example 336]
IC50: 33 nM

Fc1cnc(-c2ccc3[nH]nc(-c4ccnc(N5CCOCC5)c4)c3c2)nc1 [Example 337]
IC50: 42 nM

Cc1cnc(-c2ccc3[nH]nc(-c4ccnc(N5CCOCC5)c4)c3c2)nc1 [Example 338]
IC50: 8.9 nM

COc1cnc(-c2ccc3[nH]nc(-c4ccnc(N5CCOCC5)c4)c3c2)nc1 [Example 339]
IC50: 22 nM

Cn1cc(-c2ccc3[nH]nc(-c4ccnc(N5CCOCC5)c4)c3c2)nn1 [Example 340]
IC50: 1.1 nM

Cn1cnc(-c2ccc3[nH]nc(-c4ccnc(N5CCOCC5)c4)c3c2)c1 [Example 343]
IC50: 4.9 nM

c1cc(-c2n[nH]c3ccc(-c4cn[nH]c4)cc23)cc(N2CCOCC2)n1 [Example 344]
IC50: < 0.6 nM

Cn1nccc1-c1ccc2[nH]nc(-c3ccnc(N4CCOCC4)c3)c2c1 [Example 345]
IC50: 18 nM

c1cc(-c2ccc3[nH]nc(-c4ccnc(N5CCOCC5)c4)c3c2)[nH]n1 [Example 346]
IC50: < 0.6 nM

OCc1cc2c(-c3ccnc(N4CCOCC4)c3)n[nH]c2cc1F [Example 347]
IC50: 38 nM

CC(C)(O)COc1ccc2[nH]nc(-c3ccnc(N4CCOCC4)c3)c2c1 [Example 348]
IC50: 14 nM

OCCc1cc2c(-c3ccnc(N4CCOCC4)c3)n[nH]c2cc1F [Example 349]
IC50: 27 nM

CC(O)Cc1cc2c(-c3ccnc(N4CCOCC4)c3)n[nH]c2cc1F (centres unmarked) [Example 350]
IC50: 76 nM

Fc1cc2[nH]nc(-c3ccnc(N4CCOCC4)c3)c2cc1-c1ccn[nH]1 [Example 351]
IC50: 1.1 nM

CCOc1ccc2[nH]nc(-c3ccnc(NCCOC)c3)c2c1 [Example 354]
IC50: 6.2 nM

CCOc1ccc2[nH]nc(-c3ccnc(NCCO)c3)c2c1 [Example 355]
IC50: 10 nM

CCOc1ccc2[nH]nc(-c3ccnc(N[C@@H](C)COC)c3)c2c1 [Example 356]
IC50: 10 nM

CCOc1ccc2[nH]nc(-c3ccnc(N[C@H](C)CO)c3)c2c1 [Example 357]
IC50: 5.5 nM
